Where a name gives a salt, the structure may show the parent alone.
Key:
[1] = system: gastric emptying delayed by cholecystokinin; experiment: Effect on gastric emptying delayed by cholecystokinin; type: in vivo, Male Wistar rats; design: key to Effect on gastric emptying delayed by cholecystokinin: +: slightly to moderately improved; ++: markedly improved; ±: no improvement; conditions: for Effect on gastric emptying delayed by cholecystokinin: cholecystokinin 3 μg/kg s.c.; for Gastric emptying delayed by cholecystokinin (in words): compound 2: 30 or 100 mg/kg, 7b and Compound A: 10, 30 or 100 mg/kg
Experimental: (§1) The test was carried out according to the method of Scarpignato et al. [c f. Arch. int. Pharmacodyn., 246, 286-294 (1980)]. Male Wistar rats, weighing 130-150 g, were fasted for 18 hours before experimentation, and 1.5 ml of a test meal (phenol red 0.05% in a 1.5% aqueous methylcellulose solution) was orally given. Fifteen minutes after administration of the meal the stomach was removed and the amount of phenol red remaining in the stomach was measured. The test compounds, 10, 30 or 100 mg/kg, each dissolved or suspended in a 0.5% tragacanth solution, were orally administrated 60 minutes before administration of the test meal. Gastric emptying was delayed by subcutaneous administration of cholesystokinin 3 μg/kg or morphine 3 mg/kg 5 minutes before the administration of phenol red. The number of animals used was 5 to 10.

[2] = system: gastrointestinal motility; experiment: Gastrointestinal motility improving activity (overall statement); conditions: in vivo
exploratory activity = experiment: Inhibitory effect on exploratory activity; type: in vivo, male mice (Std-ddy strain); conditions: oral, 2 h before test, 3 min counting, Probit
Source text: A group of 5 male mice (Std-ddy strain, 20-25 g) was used. Two hours after oral administration of the test compounds in the form of 0.5% tragacanth solution or suspension, mice were placed individually in a test box (23×35×30 cm) on Animex activity meter (Farad Co.). Immediately thereafter, activity counting was started and lasted for three minutes. The mean counts of the compound-treated group were compared with those of the corresponding control (non-dosed) group, and the percent inhibition was calculated and the 50% inhibitory dose (ID50) was obtained according to the method of Probit.

gastric emptying = experiment: Gastric emptying enhancing activity; type: in vivo, Male Wistar rats; conditions: 3 mg/kg oral, 60 min before test meal; increase from control
Experimental: The test was carried out according to the method of Scarpignato et al. [cf. Arch. Int. Pharmacodyn., 246, 286-294 (1980)]. Male Wistar rats, weighing 130-150 g, were fasted for 18 hours before experimentation, and 1.5 ml of a test meal (phenol red 0.05% in a 1.5% aqueous methylcellulose solution) was orally given. Fifteen minutes after administration of the meal the stomach was removed and the amount of phenol red remaining in the stomach was measured. The test compounds, dissolved or suspended in a 0.5% tragacanth solution, were orally administered 60 minutes before administration of the test meal. The rate of gastric emptying was calculated according to the amount of phenol red remaining in the stomach, and the activity of the test compounds was expressed in terms of increase in the emptying rate from the control.

in vivo = conditions: mouse, oral, mice, 7 days observation
[3] = system: apomorphine-induced vomiting; experiment: Inhibitory effect on apomorphine-induced vomiting; type: in vivo, dogs (Beagle); conditions: 2 h before s.c. apomorphine hydrochloride 0.3 mg/kg, emetic episodes 1 h
Experimental: A group of 3-4 dogs (Beagle, 8-15 kg) was used for examining inhibitory effects of the test compounds on apomorphine-induced vomiting according to the method of Chen and Ensor [cf. J. Pharmacol. Exp. Ther., 98, 245-250 (1950)]. Test compounds, dissolved or suspended in a 0.5% tragacanth solution were orally administered two hours before the subcutaneous administration of apomorphine hydrochloride (0.3 mg/kg). Then, the emetic episodes were counted for one hour. The emetic episodes of the compound-treated group were compared with those of the corresponding control (non-dosed) group, and the percent inhibition was calculated.

[4] = system: gastrointestinal motility; experiment: Effect on gastrointestinal motility in conscious dog; type: in vivo, beagle dogs; conditions: 3 and 10 mg/kg intragastric; fed state, conscious dogs
Experimental: Four healthy beagle dogs per group of both sexes weighing 10 to 12 kg were anesthetized with an i.v. injection of pentobarbital sodium (Nembutal, 30 mg/kg b. wt.), and the abdominal cavity was opened under aseptic conditions. Extraluminal force transducers were sutured onto the seromuscular layer of the gastric antrum, 3 cm proximal to the pyloric ring, the duodenum, the jejunum, the […] terminal ileum in a manner to measure circular muscle contraction, following the method of Ito et al., [cf. Gastrointerol. Japan. 12, 275-283 (1977).] For intragastric (i.g.) administration of drugs, a Silastic tube (Fr. size 6.5) was inserted into the lumen of the gastric body, and the tube was fixed onto the adjacent serosa. The lead wires of these transducers and gastric tube were taken out of abdominal cavity and then brought out through a skin incision made between the scapulae. The outer ends of the lead wires were sutured onto the skin adjacent to the skin incision. After the operation, jacket protector was placed on the dog to protect the lead wires and the Silastic tube. The dogs were housed in individual experimental cages and given dog food at 10 a.m., and water was given freely. Test compounds at 3 and 10 mg/kg were suspended in 0.5% tragacanth solution and given i.g. through the indwelling Silastic tube.

[5] = system: gastric emptying delayed by morphine; experiment: Effect on gastric emptying delayed by morphine; type: in vivo, Male Wistar rats; design: key to Effect on gastric emptying delayed by morphine: +: slightly to moderately improved; ++: markedly improved; ±: no improvement; conditions: for Effect on gastric emptying delayed by morphine: morphine 3 mg/kg s.c.
Experimental: as §1

dopamine D2 receptor = conditions: cited from earlier work

SMILES | Effect on gastric emptying delayed by cholecystokinin ([1]; 30 mg/kg oral) | Effect on gastric emptying delayed by cholecystokinin ([1]; 100 mg/kg oral) | Gastric emptying delayed by cholecystokinin (in words) [1] | Gastrointestinal motility improving activity (in words) [2] | ED50 (exploratory activity; Mus musculus, read-out: ID50 (inhibition of exploratory activity)) [mg/kg] | Increase in gastric emptying rate (gastric emptying) [%] | LD50 at 168 h (in vivo) [mg/kg] | inhibition in vivo at 0.1 mg/kg ([3]; Canis lupus familiaris, po, 1 h, 0.1 mg/kg oral) [%] | inhibition in vivo at 1 mg/kg ([3]; Canis lupus familiaris, po, 1 h, 1.0 mg/kg oral) [%] | Interdigestive migrating like-contractions [4] | Effect on gastric emptying delayed by cholecystokinin ([1]; 10 mg/kg oral) | ID50 (inhibition of exploratory activity) (exploratory activity) [mg/kg] | Inhibition of apomorphine-induced vomiting ([3]; 0.1 mg/kg oral) [%] | Inhibition of apomorphine-induced vomiting ([3]; 1.0 mg/kg oral) [%] | Effect on gastric emptying delayed by morphine ([5]; 10 mg/kg oral) | Effect on gastric emptying delayed by morphine ([5]; 30 mg/kg oral) | Effect on gastric emptying delayed by morphine ([5]; 100 mg/kg oral) | Gastric emptying delayed by morphine (in words) ([5]; 10, 30 or 100 mg/kg) | Dopamine D2 receptor antagonistic activity (dopamine D2 receptor) | CNS depressant activity (dopamine D2 receptor; derived from dopamine D2 receptor antagonistic activity)
CCN1CCCC[C@@H](NC(=O)c2cc3nnn(C)c3cc2OC)C1 [Compound 2, (R)-N-(1-ethyl-1H-hexahydroazepin-3-yl)-6-methoxy-1-methyl-1H-benzotriazole-5-carboxamide] | + | ++ | significantly improved gastric emptying delayed by cholecystokinin | especially excellent gastrointestinal motility improving activity | > 100 | 41 | 688 | 80 | 100 | caused interdigestive migrating like-contractions in fed state in conscious dogs |  |  |  |  |  |  |  |  |  | 
CCN1CCCC[C@@H](NC(=O)c2cc3nn[nH]c3cc2OC)C1 [Compound 7b, (R)-N-(1-ethyl-1H-hexahydroazepin-3-yl)-6-methoxy-1H-benzotriazole-5-carboxamide.3/2 fumarate] | ++ | ++ | significantly improved gastric emptying delayed by cholecystokinin or morphine | especially excellent gastrointestinal motility improving activity |  | 34 | 945 |  |  | caused interdigestive migrating like-contractions in fed state in conscious dogs | + | > 100 | 69 | 100 | + | ++ | ++ | significantly improved gastric emptying delayed by cholecystokinin or morphine |  | 
CCN(CC)CCNC(=O)c1cc(Cl)c(N)cc1OC [metoclopramide, 4-amino-5-chloro-N-[2-(diethylamino)ethyl]-2-methoxybenzamide] |  |  |  |  |  |  |  |  |  |  |  |  |  |  |  |  |  |  | dopamine D2 receptor antagonistic activity | possesses CNS depressant activity
